# Patent publication US20180273531A1, “PYRIMIDINE COMPOUND AND MEDICAL USE THEREOF” (Japan Tobacco Inc., priority 2004, published 2018)
# pIC50: −log10 of the molar value.
# What was measured:
# Assay type in all cases: cell-based
# p27 protein = p27 protein induction test (Western blotting); conditions: test substance (0.1 1M), 24 hrs, ACHN cells or HT-29 cells, compared to DMSO, n=2
# Protocol: ACHN cells or HT-29 cells were cultured in a 6 well plate at 2.5×10^5 cells/1.8 mL/well for 24 hrs, a test substance ([…]) dissolved in DMSO was added. After 24 hrs, cells were detached using trypsin-EDTA (ethylene diamine tetraacetic acid) and solubilized with NuPAGE LDS sample buffer (Invitrogen). Using an RC DC protein assay kit (BIO-RAD), the protein concentration of the sample was quantitated, and a sample in an amount corresponding to 10 μg of BSA (bovine serum albumin) was analyzed by Western blotting using an anti-p27 antibody. The density of the band stained with the anti-p27 antibody was measured by a densitometer to quantify the amount of p27 protein. As a control, DMSO was used and the test was performed with n=2 and the average protein amount was determined.
# p15 protein = test: Evaluation of p15 induction activity (Western blotting); conditions: test substance 0.1 μM, 24 hrs, ACHN cells or HT-29 cells, compared to DMSO, n=2
# Method in brief: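 p15 protein quantified by densitometry of anti-p15 Western blots (10 μg protein per lane, mean of n=2). Samples came from HT-29 or ACHN cells given 0.1 μM compound for 24 h after 24 h plating, with DMSO as control.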
# [1] = test system: colorectal cancer cell line HT-29 cells; test: Growth inhibitory effect against cancer cell lines (3H-thymidine uptake), HT-29; conditions: test substance 18 hrs, then 3H-thymidine 6 hrs, triplicate
# Method in brief: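 IC50 = concentration reducing ^3H-thymidine incorporation to 50% of DMSO control, measured in triplicate. Compound added 24 hrs after plating (1.0×10^4 cells/well); label (0.25 μCi/well) given after 18 hrs of treatment, followed by 6 hrs further culture and scintillation counting of harvested cells.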
# [2] = test system: Renal cancer cell line ACHN cell; test: Growth inhibitory effect against cancer cell lines (3H-thymidine uptake), ACHN
# Protocol: Renal cancer cell line ACHN cell or colorectal cancer cell line HT-29 cells were cultured in a 96 well plate at 1.0×10^4 cells/90 μL/well for 24 hrs, then a test substance dissolved in DMSO (dimethyl sulfoxide) was added. After 18 hrs, ^3H-thymidine (0.25 μCi/well) was added and the cells were cultured for 6 hrs. Using a cell harvester, the cells were recovered on a UniFilter-96 GF/B glass filter and the ^3H radioactivity uptaken by the cells was measured by TopCount (Packard). As a control, DMSO was used and the activity of the test substance was expressed in the concentration (IC50) necessary for inhibiting ^3H radioactivity uptaken by the cell to 50% of that of the control group. The measurements were made in triplicate.
# [3] = Homo sapiens, HT-29, inhibition of 3H-thymidine uptake
Structure (SMILES),fold induction at 0.1 µM (p27 protein),fold induction at 0.1 µM (p15 protein),"pIC50 [1, 3]","pIC50 ([2]; Homo sapiens, ACHN)","pIC50 ([2]; inhibition of 3H-thymidine uptake, test substance 18 hrs, then 3H-thymidine 6 hrs, triplicate)",Induction of p15 protein (p15 protein),pIC50 ([1]; inhibition of 3H-thymidine uptake)
Cc1cc(N(C)C)ccc1Nc1cc(=O)n(C)c2c1c(=O)n(C1CC1)c(=O)n2-c1ccccc1F [Example 1-142],≥ 1.5,≥ 1.5,6.00 to 7.00,,,,
COc1ccc(Nc2cc(=O)n(C)c3c2c(=O)n(C2CC2)c(=O)n3-c2ccccc2)c(F)c1 [Example 1-175],≥ 1.5,≥ 1.5,6.00 to 7.00,,,,
CC(C)N1CCC(Nc2cc(=O)n(C)c3c2c(=O)n(C2CC2)c(=O)n3-c2ccccc2)CC1 [Example 1-182],≥ 1.5,,,,,,
COc1ccc(-n2c(=O)n(C3CC3)c(=O)c3c(Nc4ccc(Br)cc4F)cc(=O)n(C)c32)cc1 [Example 1-186],≥ 1.5,≥ 1.5,7.00 to 8.00,,,,
Cn1c(=O)c2c(Nc3ccc(Br)cc3Cl)cc(=O)n(C)c2n(-c2ccccc2)c1=O [Example 1-200],,≥ 1.5,7.00 to 8.00,6.00 to 7.00,,,
CN(C)c1ccc(Nc2cc(=O)n(C)c3c2c(=O)n(C2CC2)c(=O)n3-c2cccc(N3CCOCC3)c2)c(F)c1 [Example 1-205],,≥ 1.5,> 8.00,6.00 to 7.00,,,
Cn1c(=O)cc(Nc2ccc(I)cc2F)c2c(=O)n(C3CC3)c(=O)n(-c3ccccc3)c21 [Example 1-207],,≥ 1.5,> 8.00,7.00 to 8.00,,,
C#Cc1ccc(Nc2cc(=O)n(C)c3c2c(=O)n(C2CC2)c(=O)n3-c2ccccc2)c(F)c1 [Example 1-208],,≥ 1.5,> 8.00,7.00 to 8.00,,,
Cn1c(=O)cc(Nc2ccc(Br)cc2F)c2c(=O)n(C3CC3)c(=O)n(-c3cccc(N4CCCC4=O)c3)c21 [Example 1-212],,≥ 1.5,> 8.00,6.00 to 7.00,,,
Cn1c(=O)cc(Nc2ccc(Br)cc2F)c2c(=O)n(C3CC3)c(=O)n(-c3cccc(O)c3)c21 [Example 1-213],,≥ 1.5,7.00 to 8.00,6.00 to 7.00,,,
CN(C)CCOc1cccc(-n2c(=O)n(C3CC3)c(=O)c3c(Nc4ccc(Br)cc4F)cc(=O)n(C)c32)c1 [Example 1-218],≥ 1.5,≥ 1.5,7.00 to 8.00,,,,
Cn1c(=O)cc(Nc2ccc(Br)cc2F)c2c(=O)n(C3CC3)c(=O)n(-c3cccc(S(C)(=O)=O)c3)c21 [Example 1-223],,≥ 1.5,7.00 to 8.00,6.00 to 7.00,,,
CN(c1cccc(-n2c(=O)n(C3CC3)c(=O)c3c(Nc4ccc(Br)cc4F)cc(=O)n(C)c32)c1)S(C)(=O)=O [Example 1-228],≥ 1.5,,7.00 to 8.00,6.00 to 7.00,,,
CN(C)CC#Cc1ccc(Nc2cc(=O)n(C)c3c2c(=O)n(C2CC2)c(=O)n3-c2ccccc2)c(F)c1 [Example 1-246],,≥ 1.5,7.00 to 8.00,6.00 to 7.00,,,
COCCN(C)c1cccc(-n2c(=O)n(C3CC3)c(=O)c3c(Nc4ccc(Br)cc4F)cc(=O)n(C)c32)c1 [Example 1-253],≥ 1.5,,7.00 to 8.00,6.00 to 7.00,,,
C#Cc1ccc(Nc2cc(=O)n(C)c3c2c(=O)n(C2CC2)c(=O)n3-c2cccc(S(C)(=O)=O)c2)c(F)c1 [Example 1-259],≥ 1.5,,> 8.00,6.00 to 7.00,,,
C#Cc1ccc(Nc2cc(=O)n(C)c3c2c(=O)n(C2CC2)c(=O)n3-c2cccc(NS(C)(=O)=O)c2)c(F)c1 [Example 1-260],≥ 1.5,,> 8.00,> 8.00,,,

Structure (SMILES),fold induction at 0.1 µM (p27 protein),fold induction at 0.1 µM (p15 protein),"pIC50 [1, 3]","pIC50 ([2]; Homo sapiens, ACHN)","pIC50 ([2]; inhibition of 3H-thymidine uptake, test substance 18 hrs, then 3H-thymidine 6 hrs, triplicate)",Induction of p15 protein (p15 protein),pIC50 ([1]; inhibition of 3H-thymidine uptake)
CCS(=O)(=O)Nc1cccc(-n2c(=O)n(C3CC3)c(=O)c3c(Nc4ccc(Br)cc4F)cc(=O)n(C)c32)c1 [Example 1-262],≥ 1.5,,> 8.00,7.00 to 8.00,,,
Cn1c(=O)cc(Nc2ccc(Br)cc2F)c2c(=O)n(C3CC3)c(=O)n(-c3cccc(NC(=O)CO)c3)c21 [Example 1-263],≥ 1.5,,> 8.00,6.00 to 7.00,,,
CCS(=O)(=O)Nc1cccc(-n2c(=O)n(C3CC3)c(=O)c3c(Nc4ccc(I)cc4F)cc(=O)n(C)c32)c1 [Example 1-274],≥ 1.5,,> 8.00,> 8.00,,,
CCc1ccc(Nc2cc(=O)n(C)c3c2c(=O)n(C2CC2)c(=O)n3-c2cccc(NS(C)(=O)=O)c2)c(F)c1 [Example 1-275],≥ 1.5,,> 8.00,7.00 to 8.00,,,
CCCC(=O)Nc1cccc(-n2c(=O)n(C3CC3)c(=O)c3c(Nc4ccc(Br)cc4F)cc(=O)n(C)c32)c1 [Example 1-279],≥ 1.5,,7.00 to 8.00,6.00 to 7.00,,,
CCCCC(=O)NCCC(=O)Nc1cccc(-n2c(=O)n(C3CC3)c(=O)c3c(Nc4ccc(Br)cc4F)cc(=O)n(C)c32)c1 [Example 1-299],≥ 1.5,,7.00 to 8.00,6.00 to 7.00,,,
Cn1c(=O)cc(Nc2ccc(I)cc2)c2c(=O)n(C3CC3)c(=O)n(-c3cccc(NS(C)(=O)=O)c3)c21 [Example 1-302],≥ 1.5,,> 8.00,7.00 to 8.00,,,
Cn1c(=O)cc(Nc2ccc(Br)cc2F)c2c(=O)n(C3CC3)c(=O)n(-c3cccc(NCCN4CCOCC4)c3)c21 [Example 1-303],≥ 1.5,,7.00 to 8.00,6.00 to 7.00,,,
CCNC(=O)Nc1cccc(-n2c(=O)n(C3CC3)c(=O)c3c(Nc4ccc(Br)cc4F)cc(=O)n(C)c32)c1 [Example 1-307],≥ 1.5,,7.00 to 8.00,6.00 to 7.00,,,
CN(C)S(=O)(=O)Nc1cccc(-n2c(=O)n(C3CC3)c(=O)c3c(Nc4ccc(Br)cc4F)cc(=O)n(C)c32)c1 [Example 1-309],≥ 1.5,,> 8.00,7.00 to 8.00,,,
C#Cc1ccc(Nc2cc(=O)n(C)c3c2c(=O)n(C2CC2)c(=O)n3-c2cccc(NC(C)=O)c2)c(F)c1 [Example 1-310],≥ 1.5,,> 8.00,7.00 to 8.00,,,
CCCS(=O)(=O)Nc1cccc(-n2c(=O)n(C3CC3)c(=O)c3c(Nc4ccc(I)cc4F)cc(=O)n(C)c32)c1 [Example 1-311],≥ 1.5,,> 8.00,> 8.00,,,
C#Cc1ccc(Nc2cc(=O)n(C)c3c2c(=O)n(C2CC2)c(=O)n3-c2cccc(NS(=O)(=O)C(C)C)c2)c(F)c1 [Example 1-321],,≥ 1.5,> 8.00,7.00 to 8.00,,,
Cc1c(Nc2ccc(Br)cc2F)c2c(=O)n(C3CC3)c(=O)n(-c3cccc(NS(C)(=O)=O)c3)c2n(C)c1=O [Example 1-333],,≥ 1.5,> 8.00,7.00 to 8.00,,,
Cc1c(=O)n(C)c(Nc2ccc(I)cc2F)c2c(=O)n(C3CC3)c(=O)n(-c3ccc4c(c3)ncn4C)c12 [Example 4-111],,≥ 1.5,7.00 to 8.00,6.00 to 7.00,,,
Cc1c(=O)n(C)c(Nc2ccc(I)cc2F)c2c(=O)n(C3CC3)c(=O)n(-c3ccc4c(c3)ncn4C)c12 [Example 4-112],,,,,6.00 to 7.00,"+ (As compared to DMSO, not less than 1.5-fold induction of p15 protein)",> 8.00
